The values that follow come from patent US20220389061A1, “IMMUNOMODULATORS” (priority 2019, published 2022).

Starred links: 1 amine or outer side, 2 acyl side, 3 side chain; linkers in the order of their positions; H or OH if unused. Positions of bridges follow the written chain, without caps; N, C: chain ends. Non-standard residues stand in square brackets, D forms with d. Residues, ends and D or L forms follow the SMILES beside them. Groups on a side chain read outwards from the residue. *: point of attachment. Trp(1-CH2COOH) = N[C@@H](Cc1cn(CC(=O)O)c2ccccc12)C(=O)O; X38 = N#Cc1c[nH]c2c(NC(=S)*)cccc12; Hyp = O=C(O)[C@@H]1C[C@@H](O)CN1; X35 = Cc1n[nH]c2c(NC(=S)*)cccc12; X42 = S=C(Nc1ccc2nccnc2c1Br)*; X60 = Cc1cc2cc(NC(=S)*)ccc2o1; NMeNle = CCCC[C@H](NC)C(=O)O; X16 = S=C(Nc1ccc2c(c1)OCO2)*; X4 = S=C(Nc1ccc2c(c1)OCCO2)*; X7 = S=C(Nc1ccc2cc[nH]c2c1)*; X52 = c1ccc2c(N*)c[nH]c2c1; NMeA = CN[C@@H](C)C(=O)O; Dab = NCC[C@H](N)C(=O)O; X45 = c1ccc2sc(N*)cc2c1; Dap = NC[C@H](N)C(=O)O; CO = O=C([*:1])[*:2]

The assay deals with T1, PD-1/PD-L1 (Homo sapiens, UniProt Q9NZQ7).
T1 construct: TVMV protease site linker (C); made in house; host or cells: HEK293T cells
T1 sequence (Q9NZQ7 18-239): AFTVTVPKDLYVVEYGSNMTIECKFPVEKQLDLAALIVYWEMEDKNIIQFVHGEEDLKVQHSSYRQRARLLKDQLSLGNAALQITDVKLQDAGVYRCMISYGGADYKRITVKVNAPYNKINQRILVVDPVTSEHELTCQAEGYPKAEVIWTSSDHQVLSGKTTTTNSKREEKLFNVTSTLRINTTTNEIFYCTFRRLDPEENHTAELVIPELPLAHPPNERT
The experiment in a line: PD-1/PD-L1 Homogenous Time-Resolved Fluorescence (HTRF) binding assay. Particulars: PD-L1-His 10 nM pre-incubated with inhibitor, PD-1-Ig 20 nM; read-out: HTRF IC50. A digest of the protocol:
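HTRF read-out using europium cryptate anti-Ig (1 nM) and APC anti-His (20 nM) on extracellular-domain fusion proteins in dPBS/0.1% BSA/0.05% Tween-20. Inhibitor first incubated 15 min with 10 nM PD-L1-His, followed by 20 nM PD-1-Ig for another 15 min.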
Turning to `CCCC[C@H]1C(=O)N(C)[C@@H](CCCC)C(=O)N[C@@H](CC(C)C)C(=O)N[C@H](C(=O)NCC(N)=O)CSCC(=O)N[C@@H](Cc2ccc(O)cc2)C(=O)N(C)[C@@H](C)C(=O)N[C@@H](CC(N)=O)C(=O)N2CCC[C@H]2C(=O)N[C@@H](CNC(=O)Nc2c[nH]c3ccccc23)C(=O)N[C@@H](CC(C)C)C(=O)N2C[C@H](O)C[C@H]2C(=O)N[C@@H](Cc2c[nH]c3ccccc23)C(=O)N[C@@H](CCNC(=O)Nc2c[nH]c3ccccc23)C(=O)N[C@@H](Cc2cn(CC(=O)O)c3ccccc23)C(=O)N1C` [Example 3060] ({CH2CO}-Y[NMeA]NP[Dap]([CO-X52])L[Hyp]W[Dab]([CO-X52])[Trp(1-CH2COOH)][NMeNle][NMeNle]LCG-NH2; thioether N-14), the IC50 worked out at 2.7 nM.
For the compound `CCCC[C@H]1C(=O)N(C)[C@@H](CCCC)C(=O)N[C@@H](CC(C)C)C(=O)N[C@H](C(=O)NCC(N)=O)CSCC(=O)N[C@@H](Cc2ccc(O)cc2)C(=O)N(C)[C@@H](C)C(=O)N[C@@H](CC(N)=O)C(=O)N2CCC[C@H]2C(=O)N[C@@H](CN)C(=O)N[C@@H](CC(C)C)C(=O)N2C[C@H](O)C[C@H]2C(=O)N[C@@H](Cc2c[nH]c3ccccc23)C(=O)N[C@@H](CCNC(=O)Nc2cc3ccccc3s2)C(=O)N[C@@H](Cc2cn(CC(=O)O)c3ccccc23)C(=O)N1C` [Example 3061] ({CH2CO}-Y[NMeA]NP[Dap]L[Hyp]W[Dab]([CO-X45])[Trp(1-CH2COOH)][NMeNle][NMeNle]LCG-NH2; thioether N-14), the IC50 came to 5.6 nM.
To `CCCC[C@H]1C(=O)N(C)[C@@H](CCCC)C(=O)N[C@@H](CC(C)C)C(=O)N[C@H](C(=O)NCC(N)=O)CSCC(=O)N[C@@H](Cc2ccc(O)cc2)C(=O)N(C)[C@@H](C)C(=O)N[C@@H](CC(N)=O)C(=O)N2CCC[C@H]2C(=O)N[C@@H](CNC(=S)Nc2ccc3c(c2)OCO3)C(=O)N[C@@H](CC(C)C)C(=O)N2C[C@H](O)C[C@H]2C(=O)N[C@@H](Cc2c[nH]c3ccccc23)C(=O)N[C@@H](CCN)C(=O)N[C@@H](Cc2cn(CC(=O)O)c3ccccc23)C(=O)N1C` [Example 3065] ({CH2CO}-Y[NMeA]NP[Dap](X16)L[Hyp]W[Dab][Trp(1-CH2COOH)][NMeNle][NMeNle]LCG-NH2; thioether N-14) belongs 0.98 nM; to `CCCC[C@H]1C(=O)N(C)[C@@H](CCCC)C(=O)N[C@@H](CC(C)C)C(=O)N[C@H](C(=O)NCC(N)=O)CSCC(=O)N[C@@H](Cc2ccc(O)cc2)C(=O)N(C)[C@@H](C)C(=O)N[C@@H](CC(N)=O)C(=O)N2CCC[C@H]2C(=O)N[C@@H](CNC(=S)Nc2cccc3c(C)n[nH]c23)C(=O)N[C@@H](CC(C)C)C(=O)N2C[C@H](O)C[C@H]2C(=O)N[C@@H](Cc2c[nH]c3ccccc23)C(=O)N[C@@H](CCN)C(=O)N[C@@H](Cc2cn(CC(=O)O)c3ccccc23)C(=O)N1C` [Example 3066] ({CH2CO}-Y[NMeA]NP[Dap](X35)L[Hyp]W[Dab][Trp(1-CH2COOH)][NMeNle][NMeNle]LCG-NH2; thioether N-14), 4.6 nM; to `CCCC[C@H]1C(=O)N(C)[C@@H](CCCC)C(=O)N[C@@H](CC(C)C)C(=O)N[C@H](C(=O)NCC(N)=O)CSCC(=O)N[C@@H](Cc2ccc(O)cc2)C(=O)N(C)[C@@H](C)C(=O)N[C@@H](CC(N)=O)C(=O)N2CCC[C@H]2C(=O)N[C@@H](CNC(=S)Nc2cccc3c(C#N)c[nH]c23)C(=O)N[C@@H](CC(C)C)C(=O)N2C[C@H](O)C[C@H]2C(=O)N[C@@H](Cc2c[nH]c3ccccc23)C(=O)N[C@@H](CCN)C(=O)N[C@@H](Cc2cn(CC(=O)O)c3ccccc23)C(=O)N1C` [Example 3067] ({CH2CO}-Y[NMeA]NP[Dap](X38)L[Hyp]W[Dab][Trp(1-CH2COOH)][NMeNle][NMeNle]LCG-NH2; thioether N-14), 5.2 nM.
To `CCCC[C@H]1C(=O)N(C)[C@@H](CCCC)C(=O)N[C@@H](CC(C)C)C(=O)N[C@H](C(=O)NCC(N)=O)CSCC(=O)N[C@@H](Cc2ccc(O)cc2)C(=O)N(C)[C@@H](C)C(=O)N[C@@H](CC(N)=O)C(=O)N2CCC[C@H]2C(=O)N[C@@H](CNC(=S)Nc2ccc3cc[nH]c3c2)C(=O)N[C@@H](CC(C)C)C(=O)N2C[C@H](O)C[C@H]2C(=O)N[C@@H](Cc2c[nH]c3ccccc23)C(=O)N[C@@H](CCNC(=S)Nc2ccc3cc[nH]c3c2)C(=O)N[C@@H](Cc2cn(CC(=O)O)c3ccccc23)C(=O)N1C` [Example 3068] ({CH2CO}-Y[NMeA]NP[Dap](X7)L[Hyp]W[Dab](X7)[Trp(1-CH2COOH)][NMeNle][NMeNle]LCG-NH2; thioether N-14) belongs 2 nM; to `CCCC[C@H]1C(=O)N(C)[C@@H](CCCC)C(=O)N[C@@H](CC(C)C)C(=O)N[C@H](C(=O)NCC(N)=O)CSCC(=O)N[C@@H](Cc2ccc(O)cc2)C(=O)N(C)[C@@H](C)C(=O)N[C@@H](CC(N)=O)C(=O)N2CCC[C@H]2C(=O)N[C@@H](CNC(=S)Nc2ccc3c(c2)OCCO3)C(=O)N[C@@H](CC(C)C)C(=O)N2C[C@H](O)C[C@H]2C(=O)N[C@@H](Cc2c[nH]c3ccccc23)C(=O)N[C@@H](CCNC(=S)Nc2ccc3c(c2)OCCO3)C(=O)N[C@@H](Cc2cn(CC(=O)O)c3ccccc23)C(=O)N1C` [Example 3069] ({CH2CO}-Y[NMeA]NP[Dap](X4)L[Hyp]W[Dab](X4)[Trp(1-CH2COOH)][NMeNle][NMeNle]LCG-NH2; thioether N-14), 3.1 nM.
As to `CCCC[C@H]1C(=O)N(C)[C@@H](CCCC)C(=O)N[C@@H](CC(C)C)C(=O)N[C@H](C(=O)NCC(N)=O)CSCC(=O)N[C@@H](Cc2ccc(O)cc2)C(=O)N(C)[C@@H](C)C(=O)N[C@@H](CC(N)=O)C(=O)N2CCC[C@H]2C(=O)N[C@@H](CNC(=S)Nc2ccc3nccnc3c2Br)C(=O)N[C@@H](CC(C)C)C(=O)N2C[C@H](O)C[C@H]2C(=O)N[C@@H](Cc2c[nH]c3ccccc23)C(=O)N[C@@H](CCNC(=S)Nc2ccc3nccnc3c2Br)C(=O)N[C@@H](Cc2cn(CC(=O)O)c3ccccc23)C(=O)N1C` [Example 3070] ({CH2CO}-Y[NMeA]NP[Dap](X42)L[Hyp]W[Dab](X42)[Trp(1-CH2COOH)][NMeNle][NMeNle]LCG-NH2; thioether N-14), the IC50 was determined as 5.9 nM.
To `CCCC[C@H]1C(=O)N(C)[C@@H](CCCC)C(=O)N[C@@H](CC(C)C)C(=O)N[C@H](C(=O)NCC(N)=O)CSCC(=O)N[C@@H](Cc2ccc(O)cc2)C(=O)N(C)[C@@H](C)C(=O)N[C@@H](CC(N)=O)C(=O)N2CCC[C@H]2C(=O)N[C@@H](CNC(=S)Nc2ccc3oc(C)cc3c2)C(=O)N[C@@H](CC(C)C)C(=O)N2C[C@H](O)C[C@H]2C(=O)N[C@@H](Cc2c[nH]c3ccccc23)C(=O)N[C@@H](CCNC(=S)Nc2ccc3oc(C)cc3c2)C(=O)N[C@@H](Cc2cn(CC(=O)O)c3ccccc23)C(=O)N1C` [Example 3072] ({CH2CO}-Y[NMeA]NP[Dap](X60)L[Hyp]W[Dab](X60)[Trp(1-CH2COOH)][NMeNle][NMeNle]LCG-NH2; thioether N-14) belongs 1.5 nM; to `CCCC[C@H]1C(=O)N(C)[C@@H](CCCC)C(=O)N[C@@H](CC(C)C)C(=O)N[C@H](C(=O)NCC(N)=O)CSCC(=O)N[C@@H](Cc2ccc(O)cc2)C(=O)N(C)[C@@H](C)C(=O)N[C@@H](CC(N)=O)C(=O)N2CCC[C@H]2C(=O)N[C@@H](CNC(=S)Nc2ccc3c(c2)OCCO3)C(=O)N[C@@H](CC(C)C)C(=O)N2C[C@H](O)C[C@H]2C(=O)N[C@@H](Cc2c[nH]c3ccccc23)C(=O)N[C@@H](CCN)C(=O)N[C@@H](Cc2cn(CC(=O)O)c3ccccc23)C(=O)N1C` [Example 3073] ({CH2CO}-Y[NMeA]NP[Dap](X4)L[Hyp]W[Dab][Trp(1-CH2COOH)][NMeNle][NMeNle]LCG-NH2; thioether N-14), 5 nM.
